Experimental data reported in US9775904B2 (priority 2014, dated 2017).
Like-named read-outs stand apart in the source and are kept apart here.

What was measured:
[1] = Solubility testing in buffer (HPLC-UV); format: physicochemical
Description: Prior to the testing of solubility and stability of a peptide batch, its purity (HPLC-UV) was determined.
. Therefore, solutions from solid samples were prepared in different buffer systems with a concentration of 10 mg/mL compound based on the previously determined % purity. HPLC-UV was performed after 2 h of gentle agitation from the supernatant, which was obtained by 20 min of centrifugation at 4500 rpm.
[…]. This analysis also served as starting point (t0) for the stability testing.

[2] = target: T1, human glucagon receptor (hGlucagon R) (Homo sapiens, UniProt P47871); assay: cAMP response of HEK-293 cells expressing human glucagon receptor (HTRF); format: cell-based; details: Table 6
T1 construct: expressed in transfected cells
Description: (§1) cAMP content of cells was determined using a kit from Cisbio Corp. (cat. no. 62AM4PEC) based on HTRF (Homogenous Time Resolved Fluorescence). For preparation, cells were split into T175 culture flasks and grown overnight to near confluency in medium (DMEM/10% FBS). Medium was then removed and cells washed with PBS lacking calcium and magnesium, followed by proteinase treatment with accutase (Sigma-Aldrich cat. no. A6964). Detached cells were washed and resuspended in assay buffer (1×HBSS; 20 mM HEPES, 0.1% BSA, 2 mM IBMX) and cellular density determined. They were then diluted to 400000 cells/ml and 25 μl-aliquots dispensed into the wells of 96-well plates. For measurement, 25 μl of test compound in assay buffer was added to the wells, followed by incubation for 30 minutes at room temperature.

[3] = target: T2, human GIP receptor (hGIP-R) (Homo sapiens, UniProt P48546); assay: cAMP response of HEK-293 cells expressing human GIP receptor (HTRF); format: cell-based; details: Table 6; read-out: EC50 hGIP-R
T2 construct: expressed in transfected cells
T2 sequence (P48546 22-466): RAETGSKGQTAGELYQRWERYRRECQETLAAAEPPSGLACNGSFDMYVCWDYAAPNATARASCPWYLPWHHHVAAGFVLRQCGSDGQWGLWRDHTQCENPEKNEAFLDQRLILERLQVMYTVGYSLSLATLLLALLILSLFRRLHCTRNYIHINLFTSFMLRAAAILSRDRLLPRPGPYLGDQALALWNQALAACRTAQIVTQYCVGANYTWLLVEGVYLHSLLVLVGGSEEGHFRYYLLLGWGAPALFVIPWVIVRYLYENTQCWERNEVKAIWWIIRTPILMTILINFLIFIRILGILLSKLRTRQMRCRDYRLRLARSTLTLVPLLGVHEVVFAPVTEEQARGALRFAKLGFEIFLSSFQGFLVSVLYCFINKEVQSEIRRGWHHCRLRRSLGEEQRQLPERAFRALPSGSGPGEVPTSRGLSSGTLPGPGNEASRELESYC
Description: as §1

[4] = target: T3, human GLP-1 receptor (hGLP-1 R) (Homo sapiens, UniProt P43220); assay: cAMP response of HEK-293 cells expressing human GLP-1 receptor (HTRF); format: cell-based; details: Table 6
T3 construct: expressed in transfected cells
Description: as §1

T1 sequence (P47871 26-477): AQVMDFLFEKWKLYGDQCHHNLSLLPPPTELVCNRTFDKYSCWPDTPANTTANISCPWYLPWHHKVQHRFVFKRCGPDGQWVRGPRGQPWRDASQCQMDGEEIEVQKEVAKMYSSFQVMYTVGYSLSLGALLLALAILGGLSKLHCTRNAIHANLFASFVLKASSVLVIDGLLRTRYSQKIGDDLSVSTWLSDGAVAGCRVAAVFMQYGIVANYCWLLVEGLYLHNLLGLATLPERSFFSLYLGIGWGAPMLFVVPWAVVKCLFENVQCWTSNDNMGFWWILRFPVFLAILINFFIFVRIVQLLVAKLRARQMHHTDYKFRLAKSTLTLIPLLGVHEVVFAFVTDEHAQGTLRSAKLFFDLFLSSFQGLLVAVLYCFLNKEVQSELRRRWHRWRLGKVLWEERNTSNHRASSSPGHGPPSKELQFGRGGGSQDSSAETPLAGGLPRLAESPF
T3 sequence (P43220 24-463): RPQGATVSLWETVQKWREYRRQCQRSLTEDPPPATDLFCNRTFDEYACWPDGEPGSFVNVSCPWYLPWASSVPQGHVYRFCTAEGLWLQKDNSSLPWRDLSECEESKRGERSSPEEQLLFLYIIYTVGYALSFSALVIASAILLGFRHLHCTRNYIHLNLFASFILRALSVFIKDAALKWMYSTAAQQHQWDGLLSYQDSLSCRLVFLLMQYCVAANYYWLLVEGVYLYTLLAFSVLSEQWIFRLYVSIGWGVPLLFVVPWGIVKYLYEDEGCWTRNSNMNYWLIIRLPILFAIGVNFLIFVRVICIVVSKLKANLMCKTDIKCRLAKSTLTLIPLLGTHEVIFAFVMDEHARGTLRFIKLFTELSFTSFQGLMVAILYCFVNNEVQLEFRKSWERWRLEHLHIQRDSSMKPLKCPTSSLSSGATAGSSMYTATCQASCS

SMILES	solubility at 2 h ([1]; pH 4.5, target concentration 10 mg/ml, read-out: solubility [mg/ml] pH 4.5) [mg/mL]	solubility at 2 h ([1]; pH 7.4, target concentration 10 mg/ml, read-out: solubility [mg/ml] pH 7.4) [mg/mL]	EC50 [2] [nM]	EC50 [3] [nM]	EC50 [4] [nM]
CCCCCCCCCCCCCCCC(=O)N[C@@H](CCC(=O)N[C@@H](CCC(=O)NCCCC[C@H](NC(=O)[C@H](CCC(N)=O)NC(=O)[C@H](CCCCN)NC(=O)[C@H](CO)NC(=O)[C@H](CC(C)C)NC(=O)[C@H](CC(=O)O)NC(=O)[C@H](CO)NC(=O)[C@@H](NC(=O)[C@H](Cc1ccccc1)NC(=O)[C@@H](NC(=O)CNC(=O)[C@H](CCC(N)=O)NC(=O)C(C)(C)NC(=O)[C@@H](N)Cc1c[nH]cn1)[C@@H](C)O)[C@@H](C)O)C(=O)N[C@@H](CC(=O)O)C(=O)N[C@@H](CCC(=O)O)C(=O)N[C@@H](CCC(N)=O)C(=O)N[C@@H](CCCNC(=N)N)C(=O)N[C@@H](C)C(=O)N[C@@H](CCCCN)C(=O)N[C@@H](CC(C)C)C(=O)N[C@@H](Cc1ccccc1)C(=O)N[C@H](C(=O)N[C@@H](CCC(=O)O)C(=O)N[C@@H](Cc1c[nH]c2ccccc12)C(=O)N[C@@H](CC(C)C)C(=O)NC(C)(C)C(=O)N[C@@H](CCCCN)C(=O)N[C@H](C)C(=O)NCC(=O)N1CCC[C@H]1C(=O)N[C@@H](CO)C(=O)N[C@@H](CO)C(=O)NCC(=O)N[C@@H](C)C(=O)N1CCC[C@H]1C(=O)N1CCC[C@H]1C(=O)N1CCC[C@H]1C(=O)N[C@@H](CO)C(N)=O)[C@@H](C)CC)C(=O)O)C(=O)O [SEQ ID NO: 14, H-Aib-Q-G-T-F-T-S-D-L-S-K-Q-K(γE-γE-x53)-D-E-Q-R-A-K-L-F-I-E-W-L-Aib-K-dAla-G-P-S-S-G-A-P-P-P-S-NH2]	> 8	> 8			
CCCCCCCCCCCCCCCC(=O)N[C@@H](CCC(=O)NCCCC[C@H](NC(=O)[C@H](CCC(N)=O)NC(=O)[C@H](CCCCN)NC(=O)[C@H](CO)NC(=O)[C@H](CC(C)C)NC(=O)[C@H](CC(=O)O)NC(=O)[C@H](CO)NC(=O)[C@@H](NC(=O)[C@H](Cc1ccccc1)NC(=O)[C@@H](NC(=O)CNC(=O)[C@H](CCC(N)=O)NC(=O)C(C)(C)NC(=O)[C@@H](N)Cc1c[nH]cn1)[C@@H](C)O)[C@@H](C)O)C(=O)N[C@@H](CC(=O)O)C(=O)N[C@@H](CCC(=O)O)C(=O)N[C@@H](CCC(N)=O)C(=O)N[C@@H](CCCNC(=N)N)C(=O)N[C@@H](C)C(=O)N[C@@H](CCCCN)C(=O)N[C@@H](CC(C)C)C(=O)N[C@@H](Cc1ccccc1)C(=O)N[C@H](C(=O)N[C@@H](CCC(=O)O)C(=O)N[C@@H](Cc1c[nH]c2ccccc12)C(=O)N[C@@H](CC(C)C)C(=O)NC(C)(C)C(=O)N[C@@H](C)C(=O)NCC(=O)NCC(=O)N1CCC[C@H]1C(=O)N[C@@H](CO)C(=O)N[C@@H](CO)C(=O)NCC(=O)N[C@@H](C)C(=O)N1CCC[C@H]1C(=O)N1CCC[C@H]1C(=O)N1CCC[C@H]1C(=O)N[C@@H](CO)C(N)=O)[C@@H](C)CC)C(=O)O [SEQ ID NO: 10, H-Aib-Q-G-T-F-T-S-D-L-S-K-Q-K(γE-x53)-D-E-Q-R-A-K-L-F-I-E-W-L-Aib-A-G-G-P-S-S-G-A-P-P-P-S-NH2]			0.0524	0.89	0.0035
CCCCCCCCCCCCCCCCCC(=O)N[C@@H](CCC(=O)NCCCC[C@H](NC(=O)[C@H](CCC(N)=O)NC(=O)[C@H](CCCCN)NC(=O)[C@H](CO)NC(=O)[C@H](CC(C)C)NC(=O)[C@H](CC(=O)O)NC(=O)[C@H](CO)NC(=O)[C@@H](NC(=O)[C@H](Cc1ccccc1)NC(=O)[C@@H](NC(=O)CNC(=O)[C@H](CCC(N)=O)NC(=O)C(C)(C)NC(=O)[C@@H](N)Cc1c[nH]cn1)[C@@H](C)O)[C@@H](C)O)C(=O)N[C@@H](CC(=O)O)C(=O)N[C@@H](CCC(=O)O)C(=O)N[C@@H](CCC(N)=O)C(=O)N[C@@H](CCCNC(=N)N)C(=O)N[C@@H](C)C(=O)N[C@@H](CCCCN)C(=O)N[C@@H](CC(C)C)C(=O)N[C@@H](Cc1ccccc1)C(=O)N[C@H](C(=O)N[C@@H](CCC(=O)O)C(=O)N[C@@H](Cc1c[nH]c2ccccc12)C(=O)N[C@@H](CC(C)C)C(=O)NC(C)(C)C(=O)N[C@@H](C)C(=O)NCC(=O)NCC(=O)N1CCC[C@H]1C(=O)N[C@@H](CO)C(=O)N[C@@H](CO)C(=O)NCC(=O)N[C@@H](C)C(=O)N1CCC[C@H]1C(=O)N1CCC[C@H]1C(=O)N1CCC[C@H]1C(=O)N[C@@H](CO)C(N)=O)[C@@H](C)CC)C(=O)O [SEQ ID NO: 9, H-Aib-Q-G-T-F-T-S-D-L-S-K-Q-K(γE-x70)-D-E-Q-R-A-K-L-F-I-E-W-L-Aib-A-G-G-P-S-S-G-A-P-P-P-S-NH2]			0.0154	1.16	0.0064
